Test results: patent US20100216876A1, “ANTIDIARRHETIC COMPOSITION, PRODUCT CONTAINING THE SAME AND METHOD OF PREVENTING DIAHHREA” (priority 2007, published 2010)

Tested on: intestinal Cl− secretion
Test: Short-circuit current (Isc) measurement of cecum mucosa sample in Ussing chamber after forskolin
Type: cell-based, mouse
Method: A sample of large-intestinal mucosa was prepared in the following manner. A mouse was killed by cervical vertebra dislocation. After abdominal incision, the cecum was excised by cutting the boundary parts of the cecum with the small intestine and the large intestine. The cecum was cut open with scissors into a sheet. In order to completely remove the contents of the cecum, the cecum was pinched with tweezers and washed with a buffered solution. Then, a substitution fluid was placed in a petri dish covered with rubber, and the cecum was attached thereon with the serosa side up. Under conditions in which the buffered solution-in the petri dish was always aerated with 95% O2/5% CO2, the muscle layer was peeled using tweezers, and a sample composed of mucosa and submucosa was produced. The sample was divided into four pieces for the experiment.
Electrical analysis was carried out using this sample. FIG. 1 is a diagram showing an embodiment of measurement of short-circuit current (Isc) in Ussing chamber. The mucosa sample was placed between two Ussing-type chambers (window area: 0.2 cm^2) containing 5 ml of buffered solution. For the measurement of the electrical potential difference, a pair of calomel electrodes was connected to each chamber through a 1MKCl/2% agar salt bridge. For passing current, Ag/AgGl electrodes connected through a 1MNaCl/2% agar salt bridge were mounted. These electrodes were connected to a voltage clamp apparatus, and the short-circuit current (Isc) was measured. As for Isc, the current flowing from the mucosa side to the serosa side was positive.
The solutions to be administered were prepared as stock solutions so that the concentration of each solution was 1,000 times higher than the desired final concentration.

[1] = 20 μM on the serosa side after forskolin
[2] = 50 μM on the serosa side after forskolin

`CC(C)[C@@H]1CC[C@@H](C)C[C@H]1OCCCO` was tested, and the Isc decrease [1] was “about 50 μA/cm^2” and the Isc decrease [2] was “about 70 μA/cm^2”.

For `CC(C)[C@@H]1CC[C@@H](C)C[C@H]1OCCO` [2-(l-menthoxy)ethanol], the Isc decrease [1] was “about 10 μA/cm^2” and the Isc decrease (150 μM on the serosa side after forskolin) was “about 70 μA/cm^2”.

`CC(C)[C@@H]1CC[C@@H](C)C[C@H]1OCC(C)(O)CO` (stereo partly drawn) [2-methyl-3-(l-menthoxy)propane-1,2-diol] was tested, and the Isc decrease [1] was “about 100 μA/cm^2”, the “action on Isc compared with menthol” value [1] was “almost equal to the administration of 500 μM of menthol” and the “dose dependence of the Isc inhibitory effect” value (serosa side after forskolin) was “dose dependence was observed at doses up to 50 μM”.

With `CC1CCC(C(C)C)C(OCC(O)CO)C1` (stereo not drawn) [3-(l-menthoxy)propane-1,2-diol] the Isc decrease [1] was “about 50 μA/cm^2” and the Isc decrease [2] was “about 70 μA/cm^2”.
